From patent publication US20120177601A1, “TREATMENT OF HEPATITIS C VIRUS INFECTIONS” (THE USA AS REPRESENTED BY THE SECRETARY OF THE DEPARTMENT …, priority 2009, published 2012)
Values joined by “and” are separate entries in the source; they are usually repeats but may differ in a detail not shown here. Identical values can stand only once. Counter-ions that a name gives are not always drawn. Like-named read-outs stand apart in the source and are kept apart here.

Assays:
[1] = unconjugated form; cited from earlier work
HIV-1 protease = HIV-1 protease (Human immunodeficiency virus type 1 group M subtype B, UniProt P04585); conditions: McPhee et al. 1996; cited from earlier work
[2] = molecular target: T1, HCV NS3/4A recombinant protease (UniProt O92972); type: biochemical
T1 construct: other: recombinant protease, 591 nm/622 nm FRET peptide, regression analysis; other: recombinant NS3/4A, Lineweaver-Burk; other: BV versus BR; effect o; fused on or other part: By knowledge of the vendor's product, the NS4A cofactor segment of the same polyprotein is fused to the N-terminus of the NS3 protease domain
T1 sequence (O92972 1027-1657): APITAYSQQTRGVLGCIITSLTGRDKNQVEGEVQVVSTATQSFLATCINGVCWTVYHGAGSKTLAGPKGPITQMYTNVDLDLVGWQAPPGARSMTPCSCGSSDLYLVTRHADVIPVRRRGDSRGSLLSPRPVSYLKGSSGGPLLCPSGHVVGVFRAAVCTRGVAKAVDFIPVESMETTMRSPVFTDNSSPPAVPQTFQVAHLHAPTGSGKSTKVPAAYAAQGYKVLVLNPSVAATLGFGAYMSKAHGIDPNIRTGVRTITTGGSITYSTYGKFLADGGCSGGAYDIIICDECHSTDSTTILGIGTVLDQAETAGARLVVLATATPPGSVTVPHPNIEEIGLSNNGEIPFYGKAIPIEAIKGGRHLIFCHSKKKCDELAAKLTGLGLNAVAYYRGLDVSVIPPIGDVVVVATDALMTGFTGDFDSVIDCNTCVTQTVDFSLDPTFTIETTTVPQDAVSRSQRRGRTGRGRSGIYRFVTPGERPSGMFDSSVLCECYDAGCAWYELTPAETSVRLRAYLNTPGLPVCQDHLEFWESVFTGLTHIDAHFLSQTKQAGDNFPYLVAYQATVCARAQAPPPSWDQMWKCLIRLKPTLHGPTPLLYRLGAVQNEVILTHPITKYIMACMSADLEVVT
Protocol: In vitro assay of HCV NS3/4A recombinant protease. Protease activity was determined fluorometrically with the SensoLyte 620 HCV Protease Assay (AnaSpec, Fremont, Calif.) using a wide wavelength excitation/emission (591 nm/622 nm respectively) fluorescence energy transfer peptide according to the manufacturer's instructions. Control incubations with BV or metabolite only were performed to eliminate or correct for autofluorescence or quenching. A competitive inhibitor of the NS3/4A protease, AnaSpec #25346, was used as positive control.

[3] = in vivo; cited from earlier work
[4] = test system: HCV RNA in NS and FL replicons after BVR siRNA; type: cell-based; conditions: BV 20 μM or BR 100 μM overnight, both replicon lines, vs scrambled RNA
Protocol: (§1) Quantitative Real-time RT-PCR. Total RNA was extracted from cells using Trizol reagent (Invitrogen, Carlsbad, Calif.), treated with Turbo RNase free DNase (Ambion, TX), and processed as described (Zhu et al., 2008). To assess replication, the primers and probe designed by Takeuchi et al. (1999) targeting sequences located in 5′UTR (nt130-290) were employed as described for each replicon line (Blight et al., 2002; Lohmann et al., 2003). Real-time RT-PCR was performed using Taq DNA polymerase with the TaqMan Universal PCR Master Mix Protocol (Perkin Elmer Applied Biosystems, Foster City, Calif.). Quantitation was performed using the comparative cycle threshold (ΔCT) method as described previously (Abdalla et al., 2004).
Biliverdin reductase (BVR) knockdown. Biliverdin reductase (BVR) siRNA and control (scrambled) siRNA were purchased from Santa Cruz Biotechnology (sc-44650 and sc-37007). BVR knockdown was performed as described previously (Ryter et al., 2007). Efficiency of the knockdown was monitored by semiquantitative densitometry of BVR WB.

[5] = test system: Huh7.5FL replicon (full length Con1); experiment: HCV replication in full-length (FL) replicon cells, real-time RT-PCR (ΔCT); type: cell-based; conditions: for concentration showing significant antiviral activity / required to suppress HCV replication: FL replicon, 48 hr; for Relative [HCV] [ΔCT]: overnight, Huh7.5FL, control vehicle = 1.0
Excerpt: (§2) Cell lines and cell culture. The human hepatoma cell line (Huh5-15) with replicating sub-genomic HCV RNA (Lohmann et al., 1999) was a kind gift of Dr. Volker Lohmann (Institute for Virology, Johannes-Gutenberg University, Mainz, Germany), and cultivated as described (Zhu et al., 2008). Huh7.5 cells harboring full length (Huh7.5FL) Conl replicons (Blight et al., 2002) were a kind gift of Dr. Charles Rice (Rockefeller University, New York, N.Y.). These cells were passed as recommended by their laboratory of origin (Blight et al., 2002). An infectious clone of HCV, J6/JFH, was inoculated into Huh7.5 cells and the cultures passed as previously described (Lindenbach et al., 2005). Cells were incubated with BV, BR, or FeCl2 for 24-48 h in DMEM containing 5% FBS.
as §1

[6] = test system: Huh5-15NS replicon (sub-genomic HCV RNA); experiment: HCV replication in nonstructural (NS) replicon cells, real-time RT-PCR (ΔCT); type: cell-based; conditions: for concentration showing significant antiviral activity / required to suppress HCV replication: NS replicon, 48 hr; for Relative [HCV] [ΔCT]: overnight, Huh5-15NS, control vehicle = 1.0
Excerpt: as §2, §1

vascular injury = conditions: rats, 50 mg/kg; cited from earlier work
[7] = test system: NS5A and core protein in NS and FL replicons; experiment: Western blot / immunoprecipitation of HCV proteins in replicons; type: cell-based; conditions: for NS5A protein level (WB): both replicon lines; for NS5A protein level (WB) / core protein level (WB): 24 hr, BV 20 μM, BR 200 μM, FeCl2 100 mM as printed
Protocol: Western blot analysis. Western blots (WB) were performed as previously described using enhanced chemiluminescence for signal detection (ECLTM, Amersham) (Abdalla et al., 2005). Signal intensities were quantified using Image J software (NIH).
Immunoprecipitation of NS5A. Log-phase replicons were treated with various concentrations of BV for 48 hr, washed, lysed in cell lysis buffer (Cell Signaling Technology, Beverly, Mass.) and clarified by cold centrifugation (14,000×g for 10 min). An aliquot of supernatant containing 100 μg protein was incubated with 1 μg of HCV NS5A monoclonal antibody (Meridian Life Science, Saco, Me.) and 20 μl of rProtein G Agarose (Invitrogen, CA) overnight at 4° C. The agarose was collected by 3000×g spin, washed three times with ice-cold PBS, then dissolved in 40 μL 2× Laemmli sample buffer (Bio-Rad, CA) and assayed by WB.

LPS induced septic shock = conditions: rats, 35 mg/kg; cited from earlier work
[8] = molecular target: T2, endogenous NS3/4A protease from replicons (Hepatitis C virus genotype 1b, UniProt Q9WMX2); experiment: Endogenous NS3/4A protease assay with replicon lysates (FRET); type: biochemical, HCV; conditions: protease freshly prepared from replicons
T2 construct: For assays employing endogenous NS3/4A protease; expressed in transfected cells; host or cells: HCV replicon cells (Huh5-15 sub-genomic or Huh7.5FL Con1), Triton X-100 lysate
T2 sequence (Q9WMX2 1658-1711): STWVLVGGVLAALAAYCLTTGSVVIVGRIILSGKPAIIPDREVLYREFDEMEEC
T2 sequence (Q9WMX2 1027-1657): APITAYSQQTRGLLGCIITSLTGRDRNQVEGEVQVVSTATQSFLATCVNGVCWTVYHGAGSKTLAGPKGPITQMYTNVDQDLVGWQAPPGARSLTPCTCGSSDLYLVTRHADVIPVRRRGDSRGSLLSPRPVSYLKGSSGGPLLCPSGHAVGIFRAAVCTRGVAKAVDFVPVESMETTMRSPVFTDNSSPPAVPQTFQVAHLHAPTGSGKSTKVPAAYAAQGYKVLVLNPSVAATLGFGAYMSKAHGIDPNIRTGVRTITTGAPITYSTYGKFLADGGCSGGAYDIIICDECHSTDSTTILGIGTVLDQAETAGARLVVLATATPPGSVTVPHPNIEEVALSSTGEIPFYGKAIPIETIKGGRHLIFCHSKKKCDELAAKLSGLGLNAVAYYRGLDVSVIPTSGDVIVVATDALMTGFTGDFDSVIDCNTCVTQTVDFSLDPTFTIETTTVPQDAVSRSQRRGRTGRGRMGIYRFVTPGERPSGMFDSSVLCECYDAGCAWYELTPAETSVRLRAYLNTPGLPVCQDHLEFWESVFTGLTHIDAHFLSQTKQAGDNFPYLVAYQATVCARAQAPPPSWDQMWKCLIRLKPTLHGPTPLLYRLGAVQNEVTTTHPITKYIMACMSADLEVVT
Protocol: For assays employing endogenous NS3/4A protease, the high-throughput FRET assay was used with modifications (Yu et al., 20009). Replicon cells at 90% confluence were lysed in ice-cold 1.25% Triton X-100 lysis buffer (Yu et al., 20009). Serial dilutions of lysates were added in triplicate to black 96-well plates, together with designated concentrations of tetrapyrrole. The HiLyte Flur™ TR/QXL™ 610 substrate solution (AnaSpec) was prepared according to the manufacturer's instructions. The plate and substrate were incubated at 37° C. for 15 min, and then 50 μl substrate solution was added to each well. The plates were incubated at room temperature for 30 min, avoiding direct light. The fluorescence intensity was then measured as above for recombinant enzyme assays using FLUOstar Optima (BMG Lab Tech, Cary, N.C.). To ensure specificity for the NS3/4A protease, lysates of parental Huh7 and Huh7.5 cells were run in every assay and the results subtracted as background fluorescence.

[9] = test system: HCV replication in FL and NS replicons; experiment: BV with α-interferon, HCV replication in replicons; type: cell-based; conditions: 50 or 100 μM BV overnight with α-interferon
Protocol: FL (FIG. 7A) or NS (FIG. 7B) replicons were treated with indicated amounts of α-interferon alone or in the presence of 50 or 100 μM BV overnight. HCV replication was determined by real-time RT-PCR using the comparative cycle threshold (ΔCT) method. (*) p<0.01 vs. control; (#) p<0.005 vs. control.
as §1

[10] = test system: replicon or parental cell lines (Huh7.5); experiment: Cytotoxicity, MTT assay; type: cell-based, human; conditions: 20-200 μM BV
Protocol: Cytotoxicity assay. Cytotoxicity was assessed using the MTT assay as detailed previously (Wen et al., 2008). Cells (1×10^4 per well) were seeded in 96-well culture plates and allowed to attach overnight. […]

[11] = test system: J6/JFH infectious HCV in Huh7.5 cells; experiment: J6/JFH HCV infection of Huh7.5 cells (immunostaining, HCV RNA); type: cell-based; conditions: BV 20-200 μM, 72 hr; HCV polyvalent sera immunoreactivity and HCV RNA
Excerpt: as §2, with “Cells were incubated with BV, BR, or FeCl2 for 24-48 h in DMEM containing 5% FBS.” left out
Quantitative Real-time RT-PCR. Total RNA was extracted from cells using Trizol reagent (Invitrogen, Carlsbad, Calif.), treated with Turbo RNase free DNase (Ambion, TX), and processed as described (Zhu et al., 2008). […] Quantitation was performed using the comparative cycle threshold (ΔCT) method as described previously (Abdalla et al., 2004).
Immunocytochemical staining. […] Antibody binding was evaluated following labeling with anti-human secondary antibody-alkaline phosphatase conjugate and results recorded by photomicroscopy.

[12] = recombinant protease, 591 nm/622 nm FRET peptide, regression analysis; read-out: IC50, inhibition of HCV NS3/4A protease

## C=CC1=C(C)/C(=C/c2[nH]c(Cc3[nH]c(/C=C4\NC(=O)C(C)=C4C=C)c(C)c3CCC(=O)O)c(CCC(=O)O)c2C)NC1=O [BR, Bilirubin]
[1]
  solubility in water: not soluble in water
HIV-1 protease
  Ki: 0.8 µM
[2]; read-out: IC50, inhibition of HCV NS3/4A protease; recombinant protease, 591 nm/622 nm FRET peptide, regression analysis
  IC50: > 300 µM
[3]
  oral bioavailability: relatively poor oral bioavailability
[4]
  effect of BVR knockdown on antiviral activity (HCV RNA): no significant effect

## C=CC1=C(C)/C(=C/c2[nH]c(Cc3[nH]c(/C=C4\NC(=O)C(C)=C4C=C)c(C)c3CCC(=O)O)c(CCC(=O)O)c2C)NC1=O [Bilirubin IXα, bilirubin-IX-α]
[2]; [12]
  IC50: > 300 µM
[5]
  concentration showing significant antiviral activity / required to suppress HCV replication: 200 µM
[6]
  concentration showing significant antiviral activity / required to suppress HCV replication: 200 µM

## C=CC1=C(C)/C(=C/C2=NC(=C\c3[nH]c(/C=C4/NC(=O)C(C)=C4C=C)c(C)c3CCC(=O)OC)/C(CCC(=O)OC)=C2C)NC1=O [Biliverdin dimethylester, biliverdin dimethyl ester]
[2]; [12]
  IC50: > 300 µM

## C=CC1=C(C)/C(=C/C2=NC(=C\c3[nH]c(/C=C4\NC(=O)C(C)=C4C=C)c(C)c3CCC(=O)O)/C(CCC(=O)O)=C2C)NC1=O [Biliverdin, biliverdin-IX-α hydrochloride]
Vascular injury
  vascular injury: prevented vascular injury
HIV-1 protease
  Ki: 1 µM
[7]
  NS5A protein level (WB): decreased NS5A
[7]; full-length replicons
  core protein level (WB): reduced
[7]; full-length replicons, various concentrations of BV
  NS5A by WB or immunoprecipitation, concentration series: dose-dependently decreased NS5A
[2]; BV versus BR
  difference in IC50 of BV and BR for the NS3/4a protease: at least 10 fold
[2]; Lineweaver-Burk and secondary plots
  mode of inhibition of NS3/4A protease: both noncompetitive and competitive inhibitor activity
[2]; both BV and #25346 present
  effect of BV together with #25346 on protease activity: additive effect
[2]; read-out: IC50, inhibition of HCV NS3/4A protease; recombinant protease, 591 nm/622 nm FRET peptide, regression analysis; listed as BV, hydrochloride
  IC50: 9.3 µM and 9 µM
[2]; read-out: Ki (competitive), secondary plot Km/V vs [BV]; recombinant NS3/4A, Lineweaver-Burk
  Ki: 0.6 µM
[2]; read-out: Ki′ (noncompetitive), secondary plot 1/Vap vs [BV]; recombinant NS3/4A, Lineweaver-Burk
  Ki: 1.1 µM
LPS induced septic shock
  LPS induced septic shock: protected rats against LPS induced septic shock
[3]
  oral bioavailability: relatively poor oral bioavailability
[4]
  effect of BVR knockdown on antiviral activity (HCV RNA): significantly enhanced
[8]
  inhibition of endogenous protease compared with recombinant enzyme: slightly higher concentrations
[9]
  effect of BV on α-interferon antiviral activity: clear additive effect
[10]; inclusion of 3-5% FBS, data not shown
  toxicity (MTT) with FBS: toxicity was eliminated
[10]; serum-free culture medium, 24-48 hr
  toxicity (MTT): 15%
[5]
  concentration showing significant antiviral activity / required to suppress HCV replication: 20 µM
[11]
  Huh7.5 cell infection with J6/JFH: markedly decreased
[6]
  concentration showing significant antiviral activity / required to suppress HCV replication: 20 µM

## [Cl][Fe][Cl] [FeCl2, reference compound]
[7]
  NS5A protein level (WB): decreased
[7]; full-length replicons
  core protein level (WB): decreased
[5]; FeCl2 100 mM as printed, replicon line not specified, not shown
  HCV RNA: diminishing HCV RNA

## CCC1=C(C)/C(=C/c2[nH]c(Cc3[nH]c(/C=C4\NC(=O)C(C)=C4CC)c(C)c3CCC(=O)O)c(CCC(=O)O)c2C)NC1=O [Mesobilirubin, mesobilirubin]
[2]; [12]
  IC50: > 300 µM

## Bilirubin mixed isomers [Bilirubin (mixed isomers)]
[2]; [12]
  IC50: > 300 µM
[5]
  concentration showing significant antiviral activity / required to suppress HCV replication: 200 µM
[6]
  concentration showing significant antiviral activity / required to suppress HCV replication: 200 µM

## hemin [Heme]
[5]; Heme 5 uM
  Relative [HCV] [ΔCT]: 0.22
[5]; Heme 10 uM
  Relative [HCV] [ΔCT]: 0.08
[5]; Heme 20 uM
  Relative [HCV] [ΔCT]: 0.04
[5]; hemin, replicons
  lowest level with apparent antiviral effect: 5
[6]; Heme 5 uM, mean of four
  Relative [HCV] [ΔCT]: 0.27
[6]; Heme 10 uM
  Relative [HCV] [ΔCT]: 0.09
[6]; Heme 20 uM
  Relative [HCV] [ΔCT]: 0.03
[6]; hemin, replicons
  lowest level with apparent antiviral effect: 5
